According to patent US10266550B2, “Bacterial topoisomerase I inhibitors with antibacterial activity” (The Florida International University Board of Trustees, priority 2016, dated 2019):
pIC50: −log10 of the molar value. In brackets after ≈: the same amount, converted by molar mass. Like-named read-outs stand apart in the source and are kept apart here.

Columns and labels:
E. coli topoisomerase I = E. coli topoisomerase I (Escherichia coli (strain K12), UniProt P06612); test: biochemical; assay type: biochemical; conditions: for PIC50 (pIC50 = −log IC50): experimental, converted from IC50; for pIC50: relaxation of supercoiled plasmid DNA
E. coli topoisomerase I, sequence (P06612 whole entry, looked up): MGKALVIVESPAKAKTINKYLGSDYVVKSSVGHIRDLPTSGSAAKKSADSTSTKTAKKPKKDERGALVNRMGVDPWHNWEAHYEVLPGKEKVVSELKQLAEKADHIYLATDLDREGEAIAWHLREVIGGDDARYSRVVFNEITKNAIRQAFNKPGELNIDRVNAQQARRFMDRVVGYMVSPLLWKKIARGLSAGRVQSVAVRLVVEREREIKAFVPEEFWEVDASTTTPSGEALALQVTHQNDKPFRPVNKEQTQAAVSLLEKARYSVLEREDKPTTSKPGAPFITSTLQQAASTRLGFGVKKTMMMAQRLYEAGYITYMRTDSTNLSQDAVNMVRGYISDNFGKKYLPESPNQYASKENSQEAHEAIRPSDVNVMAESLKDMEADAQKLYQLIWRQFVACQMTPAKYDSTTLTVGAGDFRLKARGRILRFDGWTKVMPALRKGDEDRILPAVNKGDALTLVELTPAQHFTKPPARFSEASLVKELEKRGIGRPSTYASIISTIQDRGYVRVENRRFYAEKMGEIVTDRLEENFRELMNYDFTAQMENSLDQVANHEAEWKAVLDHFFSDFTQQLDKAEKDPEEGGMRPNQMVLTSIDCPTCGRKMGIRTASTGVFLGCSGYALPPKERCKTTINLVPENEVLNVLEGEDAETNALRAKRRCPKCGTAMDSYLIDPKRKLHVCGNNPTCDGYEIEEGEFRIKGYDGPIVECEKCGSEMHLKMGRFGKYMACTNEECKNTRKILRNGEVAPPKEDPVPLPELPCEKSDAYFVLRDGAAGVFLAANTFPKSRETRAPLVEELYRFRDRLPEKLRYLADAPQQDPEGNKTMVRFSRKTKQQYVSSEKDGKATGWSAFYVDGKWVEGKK
Protocol: (§1) Recombinant E. coli topoisomerase I and gyrase expressed in E. coli were purified as described previously.
E. coli Topoisomerase I Relaxation Activity Inhibition Assay
The relaxation activity of E. coli topoisomerase I was assayed in a buffer containing 10 mM Tris-HCl, pH 8.0, 50 mM NaCl, 0.1 mg/mL gelatin, and 0.5 mM MgCl2. Half microliter from the appropriate stock solutions of compounds dissolved in the solvent (DMSO) or the solvent alone (control) was mixed with 9.5 μL of the reaction buffer containing 10 ng of enzyme before the addition of 10 μL of reaction buffer containing 200 ng of supercoiled pBAD/Thio plasmid DNA purified by cesium chloride gradient as substrate. Following incubation at 37° C. for 30 min, the reactions were terminated by the addition of 4 μL of a stop buffer (50% glycerol, 50 mM EDTA, and 0.5% (v/v) bromophenol blue), and analyzed by agarose gel electrophoresis. The gels were stained in ethidium bromide and photographed under UV light.

E. coli DNA gyrase = E. coli DNA gyrase (Escherichia coli (strain K12), UniProt P0AES4+P0AES6); test: DNA gyrase supercoiling inhibition assay; assay type: biochemical; conditions: for pIC50: supercoiling of relaxed DNA, read-out: Topoisomerase inhibitory activity (IC50) E. coli DNA gyrase (type IIA)
Protocol: as §1
The samples were incubated at 37° C. for 30 minutes before being terminated by the addition of a buffer containing 5% SDS, 0.25% bromophenol blue, and 25% glycerol. The reactions were then analyzed by agarose gel electrophoresis.

Human topoisomerase I = Human topoisomerase I (Homo sapiens (Human), UniProt P11387); test: Human topoisomerase I relaxation inhibition assay; assay type: biochemical; conditions: read-out: Topoisomerase inhibitory activity (IC50) Human topo I (type IB)
Human topoisomerase I, sequence (P11387 whole entry): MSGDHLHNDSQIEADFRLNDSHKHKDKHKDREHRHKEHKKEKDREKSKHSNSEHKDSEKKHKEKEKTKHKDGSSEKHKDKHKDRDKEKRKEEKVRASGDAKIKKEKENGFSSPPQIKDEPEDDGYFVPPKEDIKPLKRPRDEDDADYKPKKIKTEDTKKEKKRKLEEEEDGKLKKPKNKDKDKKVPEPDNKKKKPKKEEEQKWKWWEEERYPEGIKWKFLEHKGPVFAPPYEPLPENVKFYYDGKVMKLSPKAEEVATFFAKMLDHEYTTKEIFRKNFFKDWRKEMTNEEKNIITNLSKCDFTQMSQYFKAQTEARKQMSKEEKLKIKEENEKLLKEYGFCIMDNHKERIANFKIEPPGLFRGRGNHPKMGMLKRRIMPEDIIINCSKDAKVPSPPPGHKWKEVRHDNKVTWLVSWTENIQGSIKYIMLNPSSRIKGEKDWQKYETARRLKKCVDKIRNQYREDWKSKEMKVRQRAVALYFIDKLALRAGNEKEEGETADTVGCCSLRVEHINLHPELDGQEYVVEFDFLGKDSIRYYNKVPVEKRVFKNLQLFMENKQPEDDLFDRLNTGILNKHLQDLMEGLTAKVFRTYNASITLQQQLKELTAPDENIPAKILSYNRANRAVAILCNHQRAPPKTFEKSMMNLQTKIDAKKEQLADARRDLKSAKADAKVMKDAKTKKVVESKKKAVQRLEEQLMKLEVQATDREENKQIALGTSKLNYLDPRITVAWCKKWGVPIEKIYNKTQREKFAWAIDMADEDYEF
Protocol: Human topoisomerase I relaxation assays were carried out with 0.5 U of enzyme in reaction buffer supplied by the manufacturer. The enzyme was mixed with the indicated concentration of compound dissolved before 200 ng of supercoiled pBAD/Thio plasmid DNA was added in the same buffer, for a final volume of 20 μL. Following incubation at 37° C. for 30 minutes, the reactions were terminated with a buffer containing 5% SDS, 0.25% bromophenol blue, and 25% glycerol, and analyzed by agarose gel electrophoresis.
Human topoisomerase I and topoisomerase IIα were purchased from TopoGen (Buena vista, CO, USA).

Human topoisomerase IIα = Human topoisomerase IIα (Homo sapiens (Human), UniProt P11388); test: Human topoisomerase IIα decatenation inhibition assay; assay type: biochemical; conditions: kDNA decatenation; read-out: Topoisomerase inhibitory activity (IC50) Human topo IIα (type IIA)
Human topoisomerase IIα, sequence (P11388 whole entry): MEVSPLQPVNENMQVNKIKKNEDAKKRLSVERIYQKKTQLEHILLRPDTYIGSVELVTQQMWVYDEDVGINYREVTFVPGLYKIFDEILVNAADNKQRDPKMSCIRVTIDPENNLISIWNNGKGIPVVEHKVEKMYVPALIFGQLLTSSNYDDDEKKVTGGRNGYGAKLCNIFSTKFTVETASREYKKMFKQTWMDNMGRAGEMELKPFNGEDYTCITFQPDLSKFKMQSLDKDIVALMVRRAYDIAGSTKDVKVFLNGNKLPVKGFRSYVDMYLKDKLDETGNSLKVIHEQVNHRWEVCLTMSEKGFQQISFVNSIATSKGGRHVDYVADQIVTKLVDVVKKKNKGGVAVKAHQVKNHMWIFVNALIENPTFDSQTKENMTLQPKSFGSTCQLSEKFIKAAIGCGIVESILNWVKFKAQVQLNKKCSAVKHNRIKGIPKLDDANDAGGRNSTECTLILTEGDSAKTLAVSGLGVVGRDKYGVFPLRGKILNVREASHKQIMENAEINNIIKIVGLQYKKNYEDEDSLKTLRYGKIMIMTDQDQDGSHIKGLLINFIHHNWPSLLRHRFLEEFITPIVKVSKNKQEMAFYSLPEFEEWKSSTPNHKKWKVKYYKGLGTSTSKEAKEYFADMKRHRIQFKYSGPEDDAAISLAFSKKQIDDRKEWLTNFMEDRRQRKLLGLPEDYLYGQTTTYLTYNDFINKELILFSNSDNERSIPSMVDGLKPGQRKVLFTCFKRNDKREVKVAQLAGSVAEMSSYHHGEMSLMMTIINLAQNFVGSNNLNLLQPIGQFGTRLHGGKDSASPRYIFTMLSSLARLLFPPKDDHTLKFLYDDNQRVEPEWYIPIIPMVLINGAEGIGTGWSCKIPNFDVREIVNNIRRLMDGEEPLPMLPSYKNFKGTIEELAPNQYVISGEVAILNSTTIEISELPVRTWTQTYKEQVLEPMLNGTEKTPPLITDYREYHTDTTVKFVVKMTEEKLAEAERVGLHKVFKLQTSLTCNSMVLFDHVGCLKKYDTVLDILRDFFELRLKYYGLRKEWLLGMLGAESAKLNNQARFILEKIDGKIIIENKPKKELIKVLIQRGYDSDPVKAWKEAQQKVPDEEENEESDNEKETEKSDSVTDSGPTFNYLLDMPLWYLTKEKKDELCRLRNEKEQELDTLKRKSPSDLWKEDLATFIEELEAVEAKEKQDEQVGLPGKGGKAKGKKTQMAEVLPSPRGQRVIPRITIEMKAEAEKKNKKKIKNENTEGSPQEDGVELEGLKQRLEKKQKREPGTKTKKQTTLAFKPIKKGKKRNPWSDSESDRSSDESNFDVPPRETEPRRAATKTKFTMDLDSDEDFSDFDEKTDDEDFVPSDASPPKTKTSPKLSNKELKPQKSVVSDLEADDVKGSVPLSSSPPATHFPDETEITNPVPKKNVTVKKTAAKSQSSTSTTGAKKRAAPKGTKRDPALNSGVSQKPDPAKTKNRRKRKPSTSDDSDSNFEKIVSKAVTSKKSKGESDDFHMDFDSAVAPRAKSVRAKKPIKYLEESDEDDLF
Protocol: Human topoisomerase I and topoisomerase IIα were purchased from TopoGen (Buena vista, CO, USA). […] The reactions were then analyzed by electrophoresis in 1% agarose gels containing […] ethidium bromide before being photographed under UV light.

[1] = tested on: E. coli Imp4213 (BAS3023); test: MIC, microdilution in Mueller-Hinton Broth; assay type: cell-based; conditions: for MIC: Escherichia coli, read-out: Whole cell based antibacterial activity (MIC) E. coli Imp4213 (BAS3023), membrane permeable imp mutant
E. coli (MG1655) WT = test: MIC, microdilution in Mueller-Hinton Broth; conditions: wild type, read-out: Whole cell based antibacterial activity (MIC) E. coli (MG1655) WT
bacterial strains = test: Whole cell antibacterial activity after storage; assay type: cell-based; conditions: after 4 weeks of storage
[2] = 1H NMR experiments
M. tuberculosis (H37Rv) = test: MIC, microplate Alamar blue assay (MABA); assay type: cell-based
[3] = Vero cell cytotoxicity assay; assay type: cell-based
Protocol: (§2) MICs of compounds against M. tuberculosis were determined by a modified microplate Alamar blue assay (MABA). Vero cell cytotoxicity assay was performed as previously described.

Vero cells = test: Vero cell cytotoxicity assay; assay type: cell-based; conditions: Chlorocebus sabaeus, Vero; cytotoxicity
Protocol: as §2

[4] = tested on: all the test bacteria strains; test: Whole cell antibacterial activity across all test strains; assay type: cell-based; conditions: range over strains; read-out: MICs against all the test bacteria strains
[5] = molecular target: Mycobacterium tuberculosis topoisomerase I (Mycobacterium tuberculosis (strain ATCC 25618 / H37Rv), UniProt P9WG49); test: Mycobacterium tuberculosis topoisomerase I inhibition; assay type: biochemical; conditions: Table 2; read-out: IC50 against Mycobacterium tuberculosis topoisomerase I
[6] = tested on: MRSA (staphylococcus aureus BAA44); test: MIC against MRSA; assay type: cell-based
[7] = tested on: mycobacterium smegmatis in biofilm; test: Biofilm viability by resazurin assay; assay type: cell-based
Protocol: Viability of the mycobacteria mycobacterium smegmatis in biofilm was measured by the resazurin assay.
The resazurin assay is a quick method using the resazurin dye as a bacterial respiration indicator to assay the antibacterial activity of various compounds used against bacterial biofilm growth. Such assay is well-known in the art. […] The biofilm was quantified indirectly by measuring the fluorescent, water-soluble resorufin product produced when resazurin is reduced by reactions associated with respiration.

[8] = tested on: several cancer cell lines; conditions: literature [32]; read-out: IC50 against several cancer cell lines; cited from earlier work
[9] = Mycobacterium tuberculosis, H37RV, MABA, read-out: Whole cell based antibacterial activity (MIC) M. tuberculosis (H37Rv)
[10] = Topoisomerase inhibitory activity (IC50) E. coli topo I (type IA)

Row | SMILES | PIC50 (pIC50 = −log IC50) (E. coli topoisomerase I) | pIC50 (E. coli DNA gyrase) | pIC50 (Human topoisomerase I) | pIC50 (Human topoisomerase IIα) | MIC [1] [µM] | MIC (E. coli (MG1655) WT; Escherichia coli, MG1655) [µM] | MIC (M. tuberculosis (H37Rv); [9]) [µM] | selectivity ratio ([3]; monkey) | pIC50 (Vero cells) | pIC50 (E. coli topoisomerase I; [10]) | other results
1 | Nc1ccc2c(c1)Oc1c(F)c(F)cc3c(=O)c(C(=O)O)cn-2c13 [Compound 1, 9-Amino-5,6-difluoro-3-oxo-3H-pyrido[3,2,1-kl]phenoxazine-2-carboxylic acid] | 5.71 | < 3.90 | 4.50 | < 3.30 | 0.78 to 1.56 (≈ 0.258 to 0.515 µg/mL) | > 200 |  |  |  |  | loss of whole cell antibacterial activity after storage (bacterial strains): 2-4 fold; precipitation in d6-DMSO solvent [2]: could be easily precipitated out
2 | O=C(O)c1cn2c3c(c(F)c(F)cc3c1=O)Oc1cc([N+](=O)[O-])c(Cl)cc1-2 [Compound 7e, 10-Chloro-5,6-difluoro-9-nitro-3-oxo-3H-pyrido[3,2,1-kl]phenoxazine-2-carboxylic acid] | 4.51 | 4.20 | 4.51 | 3.90 | 0.39 (≈ 0.154 µg/mL) | 50 (≈ 19.7 µg/mL) | 29 (≈ 11.4 µg/mL) | > 4.4 | < 3.90 |  | selectivity toward topoisomerase I over DNA gyrase (E. coli DNA gyrase): 2 fold
3 | CN1CCN(c2c(F)cc3c(=O)c(C(=O)O)cn4c3c2Oc2cc([N+](=O)[O-])ccc2-4)CC1 [Compound 10a, 5-Fluoro-6-(4-methylpiperazin-1-yl)-9-nitro-3-oxo-3H-pyrido[3,2,1-kl]phenoxazine-2-carboxylic acid] | 5.71 |  | 4.51 | 3.30 to 3.60 | 1.56 (≈ 0.687 µg/mL) | 100 (≈ 44 µg/mL) | 19 (≈ 8.37 µg/mL) | 5 | 4.02 |  | 
4 | CN1CCN(c2c(F)cc3c(=O)c(C(=O)O)cn4c3c2Oc2cc(N)ccc2-4)CC1 [Compound 11a, 9-Amino-5-fluoro-6-(4-methylpiperazin-1-yl)-3-oxo-3H-pyrido[3,2,1-kl]phenoxazine-2-carboxylic acid] | 6.32 |  | 4.81 |  |  | 6.25 (≈ 2.57 µg/mL) |  |  |  | 6.01 to 6.62 | MIC [4]: 0.78 to 7.6 µM (≈ 0.32 to 3.12 µg/mL)
5 | Nc1ccc2c(c1)Oc1c(N3CCOCC3)c(F)cc3c(=O)c(C(=O)O)cn-2c13 [Compound 11d, 9-Amino-5-fluoro-6-morpholino-3-oxo-3H-pyrido[3,2,1-kl]phenoxazine-2-carboxylic acid] | 6.01 | 5.11 | 4.81 | 4.81 | 0.19 to 0.39 (≈ 0.0755 to 0.155 µg/mL) | > 200 | 3.5 (≈ 1.39 µg/mL) | 7.1 | 4.61 |  | pIC50 [5]: 6.32; MIC [6]: 3 µM (≈ 1.19 µg/mL)
6 | Nc1ccc2c(c1)Oc1c(N3CCC(N4CCCCC4)CC3)c(F)cc3c(=O)c(C(=O)O)cn-2c13 [Compound 11g, 6-([1,4′-Bipiperidin]-1′-yl)-9-amino-5-fluoro-3-oxo-3H-pyrido[3,2,1-kl]phenoxazine-2-carboxylic acid] | 6.31 | 4.81 | 5.41 | 5.41 to 5.71 | 0.39 to 0.78 (≈ 0.187 to 0.373 µg/mL) | > 200 | 2.5 (≈ 1.2 µg/mL) | 9.8 | 4.61 | 6.01 to 6.62 | pIC50 (E. coli topoisomerase I; read-out: Topoisomerase inhibitory activity (IC50) E. coli topo I (type IA)): 6.32; MIC (M. tuberculosis (H37Rv); Mycobacterium tuberculosis strain H37Rv, Table 2, read-out: MIC (TB)): 2.5 µM (≈ 1.2 µg/mL); selectivity ratio ([3]; African green monkey): 9.8; pIC50 [5]: 6.62; MIC [6]: 12.5 µM (≈ 5.98 µg/mL); concentration that abolishes 90% of viability in biofilm [7]: 1.5 to 3 µM
7 | Nc1ccc2c(c1)Oc1c(NCCN3CCOCC3)c(F)cc3c(=O)c(C(=O)O)cn-2c13 [Compound 11h, 9-Amino-5-fluoro-6-((2-morpholinoethyl)amino)-3-oxo-3H-pyrido[3,2,1-kl]phenoxazine-2-carboxylic acid] |  | 4.51 to 4.81 | 4.81 to 5.11 |  |  |  |  |  | 4.37 |  | Whole cell based antibacterial activity (MIC) E. coli Imp4213 (BAS3023) ([1]; membrane permeable imp mutant): 0.78 µM; MIC (E. coli (MG1655) WT): >200 µM; MIC (M. tuberculosis (H37Rv); MABA, read-out: Whole cell based antibacterial activity (MIC) M. tuberculosis (H37Rv)): 21.6 µM (≈ 9.51 µg/mL)
8 | N[C@H]1CCN(c2c(F)cc3c(=O)c(C(=O)O)cn4c3c2Oc2cc([N+](=O)[O-])ccc2-4)C1 [Compound 16, (S)-6-(3-aminopyrrolidin-1-yl)-5-fluoro-9-nitro-3-oxo-3H-pyrido[3,2,1-kl]phenoxazine-2-carboxylic acid] | 6.32 | 5.41 | 5.11 |  | 1.56 (≈ 0.665 µg/mL) | > 200 | > 50 |  | < 4.30 | 6.01 to 6.62 | 
9 | N[C@H]1CCN(c2c(F)cc3c(=O)c(C(=O)O)cn4c3c2Oc2ccccc2-4)C1 [Compound A-62176] |  |  |  |  |  |  |  |  |  |  | pIC50 [8]: 5.36 to 6.06
10 | O=C(O)c1cn(C2CC2)c2cc(N3CCNCC3)c(F)cc2c1=O [ciprofloxacin, reference compound] |  |  |  |  |  |  |  |  |  |  | concentration that abolishes 90% of viability in biofilm [7]: ≥ 24 µM
